# Laboratory results from ChEMBL document CHEMBL2380224, “Fragment-based ligand design of novel potent inhibitors of tankyrases” (J Med Chem, 2013).
# Assays:
# [1] = molecular target: T1, Poly [ADP-ribose] polymerase tankyrase-1 (Homo sapiens, UniProt O95271); test: Inhibition of TNKS1 (unknown origin)
# T1 sequence (O95271 whole entry): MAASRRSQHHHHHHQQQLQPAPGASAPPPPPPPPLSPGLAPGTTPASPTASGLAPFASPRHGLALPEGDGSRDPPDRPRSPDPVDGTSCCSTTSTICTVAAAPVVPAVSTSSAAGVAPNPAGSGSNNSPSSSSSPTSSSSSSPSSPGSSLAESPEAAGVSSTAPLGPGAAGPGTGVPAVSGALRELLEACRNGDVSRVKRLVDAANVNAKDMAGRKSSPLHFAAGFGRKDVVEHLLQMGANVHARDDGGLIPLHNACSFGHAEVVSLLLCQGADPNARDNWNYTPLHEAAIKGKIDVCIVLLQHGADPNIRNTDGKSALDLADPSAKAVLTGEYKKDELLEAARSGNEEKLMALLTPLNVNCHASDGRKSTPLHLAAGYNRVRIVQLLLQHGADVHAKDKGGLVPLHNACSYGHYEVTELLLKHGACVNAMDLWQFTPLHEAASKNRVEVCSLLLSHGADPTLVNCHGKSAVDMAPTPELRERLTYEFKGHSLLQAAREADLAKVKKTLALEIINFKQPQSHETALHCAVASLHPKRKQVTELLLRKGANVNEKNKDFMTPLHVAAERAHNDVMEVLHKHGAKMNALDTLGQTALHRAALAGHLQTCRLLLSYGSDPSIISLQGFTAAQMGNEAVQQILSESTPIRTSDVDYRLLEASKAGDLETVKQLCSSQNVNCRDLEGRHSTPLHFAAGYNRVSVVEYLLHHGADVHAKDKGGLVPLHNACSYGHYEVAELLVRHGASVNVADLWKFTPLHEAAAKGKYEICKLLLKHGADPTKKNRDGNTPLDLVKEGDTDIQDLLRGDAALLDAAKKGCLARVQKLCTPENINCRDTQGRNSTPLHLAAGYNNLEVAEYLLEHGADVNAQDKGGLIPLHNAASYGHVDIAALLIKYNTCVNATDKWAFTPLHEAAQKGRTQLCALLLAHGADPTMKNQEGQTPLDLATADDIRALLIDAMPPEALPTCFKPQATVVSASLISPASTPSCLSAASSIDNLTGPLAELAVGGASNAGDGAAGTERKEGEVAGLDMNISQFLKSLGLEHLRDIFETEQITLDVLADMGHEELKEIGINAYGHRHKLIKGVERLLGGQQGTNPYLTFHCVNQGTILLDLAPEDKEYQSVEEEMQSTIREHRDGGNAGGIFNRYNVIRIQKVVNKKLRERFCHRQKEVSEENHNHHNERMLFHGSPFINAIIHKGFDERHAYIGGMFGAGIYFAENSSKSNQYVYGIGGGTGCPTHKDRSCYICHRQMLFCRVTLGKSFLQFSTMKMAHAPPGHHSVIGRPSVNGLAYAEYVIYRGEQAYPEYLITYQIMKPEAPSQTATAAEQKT
# [2] = molecular target: T2, Poly [ADP-ribose] polymerase tankyrase-2 (Homo sapiens, UniProt Q9H2K2); test: Inhibition of auto-PARsylation of GST-tagged TNKS2 PARP domain (947 to 1162) (unknown origin) expressed in Escherichia coli BL21(DE3) after 2 hrs by LC/MS analysis
# T2 sequence (Q9H2K2 whole entry): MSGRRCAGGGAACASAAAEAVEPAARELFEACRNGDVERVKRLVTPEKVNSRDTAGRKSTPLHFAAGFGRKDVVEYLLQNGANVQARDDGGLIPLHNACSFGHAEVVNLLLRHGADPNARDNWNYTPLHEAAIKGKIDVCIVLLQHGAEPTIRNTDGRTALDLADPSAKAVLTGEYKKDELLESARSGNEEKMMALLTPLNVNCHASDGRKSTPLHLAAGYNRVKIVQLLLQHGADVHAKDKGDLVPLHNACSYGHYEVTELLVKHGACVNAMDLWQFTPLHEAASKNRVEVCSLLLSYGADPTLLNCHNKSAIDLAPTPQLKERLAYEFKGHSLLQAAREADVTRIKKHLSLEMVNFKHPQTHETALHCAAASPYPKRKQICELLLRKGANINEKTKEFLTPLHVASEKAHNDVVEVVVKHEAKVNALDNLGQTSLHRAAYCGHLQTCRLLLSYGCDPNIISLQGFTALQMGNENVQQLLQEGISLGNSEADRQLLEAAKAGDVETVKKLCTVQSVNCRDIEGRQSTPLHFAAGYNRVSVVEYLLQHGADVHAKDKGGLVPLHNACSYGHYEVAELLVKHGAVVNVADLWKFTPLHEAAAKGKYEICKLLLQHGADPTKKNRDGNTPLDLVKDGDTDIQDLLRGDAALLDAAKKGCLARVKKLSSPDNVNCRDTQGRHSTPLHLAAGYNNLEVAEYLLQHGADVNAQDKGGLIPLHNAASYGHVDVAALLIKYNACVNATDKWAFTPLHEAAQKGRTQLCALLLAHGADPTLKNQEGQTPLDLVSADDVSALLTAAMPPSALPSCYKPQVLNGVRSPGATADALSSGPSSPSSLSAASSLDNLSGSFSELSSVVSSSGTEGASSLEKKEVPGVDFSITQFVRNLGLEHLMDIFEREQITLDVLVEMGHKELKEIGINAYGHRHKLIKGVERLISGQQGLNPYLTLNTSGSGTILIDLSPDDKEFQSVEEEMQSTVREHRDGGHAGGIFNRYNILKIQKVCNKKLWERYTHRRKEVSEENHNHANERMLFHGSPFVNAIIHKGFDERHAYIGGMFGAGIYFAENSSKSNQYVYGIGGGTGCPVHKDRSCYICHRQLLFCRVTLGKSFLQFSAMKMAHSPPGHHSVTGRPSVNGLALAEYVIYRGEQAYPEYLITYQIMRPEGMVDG
# [3] = molecular target: Protein mono-ADP-ribosyltransferase PARP6 (Homo sapiens, UniProt Q2NL67); test: Inhibition of PARP6 (unknown origin)
# Protein mono-ADP-ribosyltransferase PARP6, sequence (Q2NL67 whole entry, the tested form may be a part): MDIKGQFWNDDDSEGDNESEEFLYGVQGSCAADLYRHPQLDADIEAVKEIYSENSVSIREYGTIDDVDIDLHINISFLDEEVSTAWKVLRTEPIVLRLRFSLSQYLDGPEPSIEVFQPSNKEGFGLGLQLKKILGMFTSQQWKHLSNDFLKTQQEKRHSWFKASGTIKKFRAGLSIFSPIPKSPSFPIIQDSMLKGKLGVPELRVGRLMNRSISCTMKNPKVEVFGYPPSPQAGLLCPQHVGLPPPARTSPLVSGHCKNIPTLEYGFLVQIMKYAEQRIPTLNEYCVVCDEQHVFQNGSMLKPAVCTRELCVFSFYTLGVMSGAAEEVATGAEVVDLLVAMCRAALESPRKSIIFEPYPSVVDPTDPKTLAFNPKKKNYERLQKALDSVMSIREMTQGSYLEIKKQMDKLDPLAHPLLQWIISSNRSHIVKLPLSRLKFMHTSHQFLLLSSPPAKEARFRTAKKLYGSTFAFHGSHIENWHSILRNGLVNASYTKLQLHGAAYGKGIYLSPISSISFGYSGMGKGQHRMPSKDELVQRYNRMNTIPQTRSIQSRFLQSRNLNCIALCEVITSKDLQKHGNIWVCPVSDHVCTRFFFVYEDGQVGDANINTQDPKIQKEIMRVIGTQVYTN
# [4] = species on record: Homo sapiens; test: Selectivity ratio of IC50 for PARP1 (unknown origin) to IC50 for TNKS2 PARP domain (947 to 1162) (unknown origin)
# [5] = species on record: Homo sapiens; test: Selectivity ratio of IC50 for TNKS1 (unknown origin) to IC50 for TNKS2 PARP domain (947 to 1162) (unknown origin)
structure (smiles),measurement,setting,value
Cc1cc(=O)[nH]c2cc(-c3ccccc3F)ccc12,IC50,[1],860 nM
same,IC50,[2],52 nM
same,IC50,[3],> 10000 nM
same,Ratio IC50,[4],> 100
same,Ratio IC50,[5],16.5
